Assay results: article PMC5830302 (ACS chemical biology, 2017)

Biological target: ClbQ (Escherichia coli, UniProt Q0P7K7)
Test: DTNB-based continuous spectrophotometric thioesterase assay
Type: biochemical
Details: 100 mM Tris HCl, pH 7.4, 20 mM NaCl, 100 uM DTNB, 100 nM ClbQ, 37 °C

| Compound | DTNB-based continuous spectrophotometric thioesterase assay (412 nm) |
| --- | --- |
| CCCCCCCCCCCCCC(=O)SCCNC(C)=O [myristoyl-SNAC] | ClbQ has thioesterase activity with model straight-chain acyl-SNACs |
| CC(=O)NCCSC(C)=O [acetyl-SNAC] | ClbQ has thioesterase activity with model straight-chain acyl-SNACs |
